Assays:
[1] = biological target: T1, PAK4 Kinase domain (PAK4 KD) (Homo sapiens, UniProt O96013); experiment: PAK4 kinase domain enzymatic assay (PK/LDH-coupled, Ki); type: biochemical; conditions: PAK4 Kinase Domain
T1 construct: Cloning, expression, and purification of recombinant PAK4 Kinase domain (PAK4 KD); His tag (pET28a(+)/pET24a(+), Ni-NTA purification) (N, cleaved yes); GST (pGST4.5, glutathione column) (N, cleaved yes); made in house; host or cells: E. coli BL21(DE3)

[2] = biological target: T2, PAK4 kinase activity in whole cells (TR-293-KDG, modified HEK 293) (Homo sapiens, UniProt O96013); experiment: PAK4 cellular assay: sandwich ELISA of PAK4-dependent phosphorylation of GEF-H1b in TR-293-KDG cells; type: cell-based; conditions: 3-hour exposure
T2 construct: engineered to overexpress both GEF-H1b and the kinase domain (KD) of PAK4; expressed in transfected cells; host or cells: TR-293-KDG (modified HEK 293, Trex system, Invitrogen)
T2 sequence (O96013 321-572 limits assumed): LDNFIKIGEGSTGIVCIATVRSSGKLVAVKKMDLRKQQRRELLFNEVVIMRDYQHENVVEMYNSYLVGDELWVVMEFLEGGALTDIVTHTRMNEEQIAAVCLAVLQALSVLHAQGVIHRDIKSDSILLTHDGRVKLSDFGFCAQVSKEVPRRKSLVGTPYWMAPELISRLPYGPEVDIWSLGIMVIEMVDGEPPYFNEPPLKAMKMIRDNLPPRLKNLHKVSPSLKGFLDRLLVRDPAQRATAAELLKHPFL
Method: A sandwich ELISA method was used to measure the PAK4 kinase activity in whole cells. The level of PAK4-dependent phosphorylation of GEF-H1b can be determined by monitoring the binding of a phosphospecific antibody to GEF-H1b. […] The KD of PAK4 is inducible in this cell line by tetracycline (Trex system, Invitrogen). […] To establish a phosphorylation event on GEF-HL, cells are induced with doxycycline to express the PAK4 KD. […] Candidate substance effect is measured as the ability to block this phosphorylation event.
ELISA plate was prepared by pre-coating the plates with a capture antibody (α-HA-tag mouse monoclonal antibody), blocked with BSA, and washed in 0.1% tween 20 in tris-buffered saline (TBST). […] Cells were then lysed with a modified RIPA buffer supplemented with protease inhibitors. […] Between all subsequent steps plates were washed 4 times with TBST. Detection antibody (recognizing the phospho-specific eptitope on GEF-H1b) was added for 1 hour, followed by addition of an enzyme linked goat α-rabbit secondary antibody for 45 minutes. […] EC50 values were calculated by sigmoid curve fitting using a four-parameter analysis.

T1 sequence (O96013 321-572 limits assumed): as above

SMILES	Ki [1] [nM]	EC50 [2] [nM]
CN(C)C[C@@H](NC(=O)N1Cc2c(NC(=O)Cc3ccc(F)cc3)n[nH]c2C1(C)C)c1ccccc1 [Example 54, N-[(1S)-2-(dimethylamino)-1-phenylethyl]-3-{[(4-fluorophenyl)acetyl]amino}-6,6-dimethyl-4,6-dihydropyrrolo[3,4-c]pyrazole-5(1H)-carboxamide]	41	353
CC(C)C[C@@H](CN(C)C)OC(=O)N1Cc2c(NC(=O)c3ccc(C(F)(F)F)cc3)n[nH]c2C1(C)C [Example 79, (1S)-1-[(dimethylamino)methyl]-3-methylbutyl 6,6-dimethyl-3-{[4-(trifluoromethyl)benzoyl]amino}-4,6-dihydropyrrolo[3,4-c]pyrazole-5(1H)-carboxylate]	96	2120
CN(C)C[C@@H](OC(=O)N1Cc2c(NC(=O)C3CCCCC3)n[nH]c2C1(C)C)c1ccccc1 [Example 13, (1S)-2-(dimethylamino)-1-phenylethyl 3-[(cyclohexylcarbonyl)amino]-6,6-dimethyl-4,6-dihydropyrrolo[3,4-c]pyrazole-5(1H)-carboxylate]	109	3.9
CN(C)CC(CC(=O)N1Cc2c(NC(=O)c3cccs3)n[nH]c2C1(C)C)c1ccc(Cl)cc1 (centres unmarked) [Example 97, N-{5-[3-(4-chlorophenyl)-4-(dimethylamino)butanoyl]-6,6-dimethyl-1,4,5,6-tetrahydropyrrolo[3,4-c]pyrazol-3-yl}thiophene-2-carboxamide]	110	1510
CN(C)CC(OC(=O)N1Cc2c(NC(=O)c3ccc(F)cc3)n[nH]c2C1(C)C)c1cccc2cccnc12 (centres unmarked) [Example 94, 2-(dimethylamino)-1-(quinolin-8-yl)ethyl 3-(4-fluorobenzamido)-6,6-dimethylpyrrolo[3,4-c] pyrazole-5(1H,4H,6H)-carboxylate]	161	413
CN(C)C[C@@H](NC(=O)N1Cc2c(n[nH]c2NC(=O)c2nccs2)C1(C)C)c1ccccc1 [Example 71, N-[(1S)-2-(dimethylamino)-1-phenylethyl]-6,6-dimethyl-3-[(1,3-thiazol-2-ylcarbonyl)amino]-4,6-dihydropyrrolo[3,4-c]pyrazole-5(1H)-carboxamide]	101	84.1
CN(C)C[C@@H](OC(=O)N1Cc2c(NC(=O)Cc3ccc(F)cc3)n[nH]c2C1(C)C)c1ccccn1 [Example 28, (1R)-2-(dimethylamino)-1-pyridin-2-ylethyl 3-{[(4-fluorophenyl)acetyl]amino}-6,6-dimethyl-4,6-dihydropyrrolo[3,4-c]pyrazole-5(1H)-carboxylate]	73.2	280
CN(C)C[C@@H](OC(=O)N1Cc2c(NC(=O)C3CCCC3)n[nH]c2C1(C)C)c1ccccc1 [Example 12, (1S)-2-(dimethylamino)-1-phenylethyl 3-[(cyclopentylcarbonyl)amino]-6,6-dimethyl-4,6-dihydropyrrolo[3,4-c]pyrazole-5(1H)-carboxylate]	95.5	3.27
CN(C)C[C@@H](OC(=O)N1Cc2c(NC(=O)c3ccccc3)n[nH]c2C1(C)C)c1ccccn1 [Example 24, (1R)-2-(dimethylamino)-1-pyridin-2-ylethyl 3-(benzoylamino)-6,6-dimethyl-4,6-dihydropyrrolo[3,4-c]pyrazole-5(1H)-carboxylate]	63.7	140
CN(C)C[C@@H](OC(=O)N1Cc2c(NC(=O)C3CCCO3)n[nH]c2C1(C)C)c1ccccc1 (stereo partly drawn) [Example 15, (1S)-2-(dimethylamino)-1-phenylethyl 6,6-dimethyl-3-[(tetrahydrofuran-2-ylcarbonyl)amino]-4,6-dihydropyrrolo[3,4-c]pyrazole-5(1H)-carboxylate]	145	16.1
CN(Cc1ccccc1)C[C@@H](OC(=O)N1Cc2c(NC(=O)c3ccc(F)cc3)n[nH]c2C1(C)C)c1ccccc1 [Example 82, (1S)-2-[benzyl(methyl)amino]-1-phenylethyl 3-[(4-fluorobenzoyl)amino]-6,6-dimethyl-4,6-dihydropyrrolo[3,4-c]pyrazole-5(1H)-carboxylate]	434	301
CN(C)C[C@@H](NC(=O)N1Cc2c(NC(=O)C3CCC3)n[nH]c2C1(C)C)c1ccccc1 [Example 53, 3-[(cyclobutylcarbonyl)amino]-N-[(1S)-2-(dimethylamino)-1-phenylethyl]-6,6-dimethyl-4,6-dihydropyrrolo[3,4-c]pyrazole-5(1H)-carboxamide]	210	28
COc1ccc(CC(=O)Nc2n[nH]c3c2CN(C(=O)N[C@H](CN(C)C)c2ccccc2)C3(C)C)cc1 [Example 55, N-[(1S)-2-(dimethylamino)-1-phenylethyl]-3-{[(4-methoxyphenyl)acetyl]amino}-6,6-dimethyl-4,6-dihydropyrrolo[3,4-c]pyrazole-5(1H)-carboxamide]	13.6	148
CN(C)C[C@@H](OC(=O)N1Cc2c(NC(=O)c3cn(C)cn3)n[nH]c2C1(C)C)c1ccccc1 [Example 69, (1S)-2-(dimethylamino)-1-phenylethyl 6,6-dimethyl-3-{[(1-methyl-1H-imidazol-4-yl)carbonyl]amino}-4,6-dihydropyrrolo[3,4-c]pyrazole-5(1H)-carboxylate]	149	226
CC1(C)c2[nH]nc(NC(=O)[C@@H]3C[C@H]3c3ccccc3)c2CN1C(=O)N[C@@H]1C[C@H]1c1ccccc1 (relative stereo) [Example 108, 6,6-dimethyl-N-[trans-2-phenylcyclopropyl]-3-({[trans-2-phenylcyclopropyl]-carbonyl}amino)-4,6-dihydropyrrolo[3,4-c]pyrazole-5(1H)-carboxamide]	70	1150
CC(C)N(C)C[C@@H](OC(=O)N1Cc2c(NC(=O)c3ccc(F)cc3)n[nH]c2C1(C)C)c1ccccc1 [Example 40, (1S)-2-[isopropyl(methyl)amino]-1-phenylethyl 3-[(4-fluorobenzoyl)amino]-6,6-dimethyl-4,6-dihydropyrrolo[3,4-c]pyrazole-5(H)-carboxylate]	64.9	152
CN(C)C[C@@H](OC(=O)N1Cc2c(NC(=O)c3ccc(F)cc3)n[nH]c2C1(C)C)C1CCCCC1 [Example 75, (1S)-1-cyclohexyl-2-(dimethylamino)ethyl 3-[(4-fluorobenzoyl)amino]-6,6-dimethyl-4,6-dihydropyrrolo[3,4-c]pyrazole-5(1H)-carboxylate]	73.1	115
CN(C)C[C@@H](OC(=O)N1Cc2c(NC(=O)C3CC3)n[nH]c2C1(C)C)c1ccccc1 [Example 9, (1S)-2-(dimethylamino)-1-phenylethyl 3-[(cyclopropylcarbonyl)amino]-6,6-dimethyl-4,6-dihydropyrrolo[3,4-c]pyrazole-5(1H)-carboxylate]	96.4	13.3
Cc1cc(C(=O)Nc2n[nH]c3c2CN(C(=O)O[C@H](CN(C)C)c2ccccc2)C3(C)C)no1 [Example 86, (S)-2-(dimethylamino)-1-phenylethyl 6,6-dimethyl-3-(5-methylisoxazole-3-carboxamido)pyrrolo[3,4-c]pyrazole-5(1H,4H,6H)-carboxylate]	68.7	18

From patent publication US7884117B2, “Carbonylamino pyrrolopyrazoles, potent kinase inhibitors” (Pfizer Inc., priority 2005, dated 2011)
